{"source": "patent US20090304755A1", "about": "“PHARMACEUTICAL FORMULATION OF LOSARTAN” (priority 2005, published 2009)", "key": {"[1]": {"test": "Particle size by Malvern light scattering technique", "type": "physicochemical", "conditions": "particle size of losartan active agent", "excerpt": "“d (0.9)” denotes a particle size wherein 90% (volume) particles have diameter less than the specified diameter d."}, "[2]": {"test": "Specific surface area by gas adsorption analyzer method (BET)", "type": "physicochemical", "conditions": "losartan active agent", "excerpt": "The results of our investigations have shown that it is advantageous to use losartan, with a particle size d (0.9) less than 50μ measured by Malvern light scattering technique, and/or a specific particle specific surface area more than 0.6 m^2/g measured by the Gas adsorption analyzer method (BET)."}, "[3]": {"conditions": "oral administration; cited from earlier work"}}, "data": [{"smiles": "CCCCc1nc(Cl)c(CO)n1Cc1ccc(-c2ccccc2-c2nn[nH]n2)cc1", "note": "[A, Losartan Potassium]", "values": [{"measurement": "d (0.1)", "setting": "[1]", "result": "d (0.1) = 0.869μ"}, {"measurement": "d (0.5)", "setting": "[1]", "result": "d (0.5) = 10.077μ"}, {"measurement": "d (0.9)", "setting": "[1]", "result": "d (0.9) = 21.382μ"}, {"measurement": "Specific Surface Area", "setting": "[2]", "result": "Specific Surface Area = 0.7-0.8 m^2/g"}]}, {"smiles": "CCCCc1nc(Cl)c(CO)n1Cc1ccc(-c2ccccc2-c2nn[nH]n2)cc1", "note": "[losartan, Losartan]", "values": [{"measurement": "systemic bioavailability", "setting": "[3]", "result": "approximately 33%"}]}, {"smiles": "CCCCc1nc(Cl)c(CO)n1Cc1ccc(-c2ccccc2-c2nn[nH]n2)cc1", "note": "[B, Losartan Potassium]", "values": [{"measurement": "d (0.1)", "setting": "[1]", "result": "d (0.1) = 1.806μ"}, {"measurement": "d (0.5)", "setting": "[1]", "result": "d (0.5) = 24.812μ"}, {"measurement": "d (0.9)", "setting": "[1]", "result": "d (0.9) = 53.931μ"}, {"measurement": "Specific Surface Area", "setting": "[2]", "result": "Specific Surface Area = 0.4-0.5 m^2/g"}]}]}
